Laboratory results taken from patent publication US20110112308A1 (NOVARTIS AG, priority 2006, published 2011).
Structures can show the parent of a compound that is named as a salt. Each block holds one molecule with its values, some of them ahead of it.

Tests used:
[1] = Solid samples held at 93% r.h. (XRPD, TGA); format: physicochemical; conditions: for Solid State (EQ 93% r.h.) Crystallinity by XRPD: either 7 or 10 days
Description: An approximate solubility of the below-listed salts was determined in water and at pH 1 by suspending 5-15 mg of the salt in 1 mL of solvent. The samples were allowed to equilibrate at ambient temperature for at least 20 hours. The supernatant was filtered and used for the solubility determination, which was done gravimetrically, for the aqueous solubility, and by UV-VIS spectroscopy for pH 1. The solid residue was analyzed by XRPD. […] They were subsequently analyzed by XRPD and TGA, if the latter deemed necessary. Only irreversible or slowly reversible events can be detected.

[2] = Intrinsic dissolution rate, rotation disk method; format: physicochemical
Description: Intrinsic Dissolution: […] […] Pellets of the other salts remained intact for at least several minutes enabling the determination of the intrinsic dissolution rate. Dissolution rate studies were performed using the rotation disk method ([…] Instrument). A single rotation speed of 200 r.p.m. was used to dissolve drug substance into a 500 mL vessel at 37° C. The solution was continuously pumped through a UV cell measurement and returned to the dissolution vessel.

[3] = Solution stability (HPLC); format: physicochemical
Description: (§1) All samples were prepared/diluted to a concentration of 0.2 mg/mL in methanol prior to analysis by HPLC. A freshly prepared sample of each salt was used as the reference standard for external standard calibration analysis.

[4] = Solid-state stability; format: physicochemical; conditions: for Bulk stability (XRPD): 1 week
Description: as §1

[5] = Stability of mixtures with excipients; format: physicochemical
Description: as §1

[6] = Solubility, 24-hour equilibration at room temperature; format: physicochemical
Description: Aqueous Solubility: A carefully weighted amount (20-50 mg) of sample is dissolved in 1 ml of solvent with 24-hour equilibration at room temperature. The solubility was determined either gravimetrically or by UV-VIS spectrometry. The pH of the clear solution was also measured. However, the difficulty of determining salt solubilities in water should be stressed, since upon dissolution dissociation to the free form is possible, which affects both the solubility and the pH. It's not unlikely that attempts to make solutions of a salt at a concentration well below the reported solubility of the salt to be unsuccessful (for a full discussion see: M. Pudipeddi, A. T. M. Serajuddin, D. J. W. Grant, and P. H. Stahl in “Handbook of Pharmaceutical Salts Properties Selection and Use” page 27 and references therein).

[7] = Equilibration in solvents and buffers: form conversion
[8] = 2 mg/mL in methanol, 1 week at 50° C.
[9] = 2 mg/mL in water, 1 week at 50° C.
[10] = 2 mg/mL, 100 mM lactate buffer pH 3.5, 1 week at 50° C.
[11] = 2% in 0.5% HPMC 4000, 1 day at RT
[12] = 2% in 0.5% Klucel HF, 1 day at RT
[13] = 2% in 0.8% Tween 80, 1 day at RT
[14] = 5% solution, 1 day at RT (diluted 1:100 in pH 6.8 buffer)
[15] = Bulk stability, 2 weeks, 50° C.
[16] = Bulk stability, 2 weeks, 50° C./20% water
[17] = Bulk stability, 2 weeks, 50° C./75% r.h.
[18] = Light study, 1200 kLux (300-800 nm)
[19] = Mixture 1: 50% PVP + 50% Crospovidone, 50° C./75% r.h., 2 weeks
[20] = Mixture 2: 50% Starch 1500 + 5% MCC 102, 50° C./75% r.h., 2 weeks
[21] = Mixture 3: 5% PVP + 5% Crospovidone + 10% Starch 1500 + 80% MCC 102, 50° C./75% r.h., 2 weeks
[22] = Mixture 4: 99% Lactose + 1% BHT/BHA, 50° C./75% r.h., 2 weeks
[23] = Mixture 5: 99% Mannitol + 1% BHT/BHA, 50° C./75% r.h., 2 weeks
[24] = Mixture 6: 50% Mannitol + 47% HPCLH21 + 1% BHT/BHA + 2% Magnesium Stearate, 50° C./75% r.h., 2 weeks
[25] = Mixture 7: 50% Cetyl Alcohol + 49% HPCLH21 + 1% Magnesium Stearate, 50° C./75% r.h., 2 weeks
[26] = Mixture 8: 100% PEG 3350, 50° C./75% r.h., 2 weeks

Solid State (EQ 93% r.h.) Form by XRPD ([1]; 10 days): No change
Molecule: Cc1[nH]c2ccccc2c1CCNCc1ccc(/C=C/C(=O)NO)cc1.Cc1[nH]c2ccccc2c1CCNCc1ccc(/C=C/C(=O)NO)cc1.O=C(O)CCC(=O)O [Succinate, 2:1 succinate (hemi-succinate) salt of N-hydroxy-3-[4-[[[2-(2-methyl-1H-indol-3-yl)ethyl]amino]methyl]phenyl]-2E-2-propenamide]

Solid State (EQ 93% r.h.) Form by XRPD ([1]; 10 days): No change
Molecule: Cc1[nH]c2ccccc2c1CCNCc1ccc(/C=C/C(=O)NO)cc1.Cc1[nH]c2ccccc2c1CCNCc1ccc(/C=C/C(=O)NO)cc1.O=C(O)CC(=O)O [Malonate, 2:1 malonate (hemi-malonate) salt of N-hydroxy-3-[4-[[[2-(2-methyl-1H-indol-3-yl)ethyl]amino]methyl]phenyl]-2E-2-propenamide]

Intrinsic Dissolution Rate ([2]; 0.1N HCl (Table 19)): 0.02
Intrinsic Dissolution Rate ([2]; Water (Table 19)): 0.06
Intrinsic Dissolution Rate ([2]; pH = 4 (Table 19)): 0.08
pH of initial mixture ([3]; 2 mg/mL in 100 mM lactate buffer, pH 3.5): 3.57
% DP (total degradation products) [3, 8]: 0.71 % area
assay [3, 8]: [102.8]
pH of initial mixture ([3]; 2 mg/mL in water): 6.30
% DP (total degradation products) [3, 9]: 1.22 % area
CL (appearance) [3, 9]: A↓
assay [3, 9]: [98.85]
% DP (total degradation products) [3, 10]: 1.31 % area
CL (appearance) [3, 10]: A↓*
assay ([3]; 2 mg/mL, 100 mM lactate buffer pH 3.5, 1 week at 50° C., external standard): [99.12]
% DP (total degradation products) ([3]; 2% in 0.5% CMC, 1 day at RT): 0.49 % area
CL (appearance) ([3]; 2% in 0.5% CMC, 1 day at RT): A↓↓
assay ([3]; 2% in 0.5% CMC, 1 day at RT): [77.50]
% DP (total degradation products) [3, 11]: 0.41 % area
assay [3, 11]: [96.42]
% DP (total degradation products) [3, 12]: 0.43 % area
assay [3, 12]: [96.99]
% DP (total degradation products) [3, 13]: 0.42 % area
assay [3, 13]: [95.06]
% DP (total degradation products) [3, 14]: 0.52 % area
CL (appearance) [3, 14]: A↓
assay [3, 14]: [99.24]
Unstressed (% Area) ([3]; unstressed baseline of the stability study): 99.51% Area
Bulk stability (XRPD) ([4]; 80° C.): no change
Bulk stability (XRPD) ([4]; 80° C./75% r.h.): no change
% DP (total degradation products) [4, 15]: 0.43 % area
assay [4, 15]: [99.31]
% DP (total degradation products) [4, 16]: 0.51 % area
assay [4, 16]: [100.3]
% DP (total degradation products) [4, 17]: 0.43 % area
assay [4, 17]: [99.86]
% DP (total degradation products) [4, 18]: 1.68 % area
CL (appearance) [4, 18]: C (C = medium discoloration)
assay [4, 18]: [98.65]
% DP (total degradation products) [5, 19]: 0.6 % area
% DS (drug substance) [5, 19]: 99.4 % area
% DP (total degradation products) [5, 20]: 0.4 % area
% DS (drug substance) [5, 20]: 99.6 % area
% DP (total degradation products) [5, 21]: 0.5 % area
% DS (drug substance) [5, 21]: 99.5 % area
% DP (total degradation products) [5, 22]: 0.5 % area
% DS (drug substance) [5, 22]: 99.5 % area
% DP (total degradation products) [5, 23]: 0.5 % area
% DS (drug substance) [5, 23]: 99.5 % area
% DP (total degradation products) [5, 24]: 0.6 % area
% DS (drug substance) [5, 24]: 99.3 % area
% DP (total degradation products) [5, 25]: 0.5 % area
% DS (drug substance) [5, 25]: 99.5 % area
% DP (total degradation products) [5, 26]: 0.6 % area
% DS (drug substance) [5, 26]: 99.4 % area
% DP (total degradation products) ([5]; Standard, freshly prepared): 0.4 % area
% DS (drug substance) ([5]; Standard, freshly prepared): 99.6 % area
Molecule: CC(O)C(=O)O.Cc1[nH]c2ccccc2c1CCNCc1ccc(/C=C/C(=O)NO)cc1.O (racemic) [Monohydrate DL-lactate salt, 1:1 monohydrate DL-lactate salt of N-hydroxy-3-[4-[[[2-(2-methyl-1H-indol-3-yl)ethyl]amino]methyl]phenyl]-2E-2-propenamide]

Solid State (EQ 93% r.h.) Form by XRPD ([1]; 7 days): No change
Molecule: Cc1[nH]c2ccccc2c1CCNCc1ccc(/C=C/C(=O)NO)cc1.O=P(O)(O)O [Phosphate, 1:1 phosphate salt of N-hydroxy-3-[4-[[[2-(2-methyl-1H-indol-3-yl)ethyl]amino]methyl]phenyl]-2E-2-propenamide]

Solid State (EQ 93% r.h.) Form by XRPD ([1]; 10 days): No change
Molecule: Cc1[nH]c2ccccc2c1CCNCc1ccc(/C=C/C(=O)NO)cc1.Cc1[nH]c2ccccc2c1CCNCc1ccc(/C=C/C(=O)NO)cc1.O=C(O)/C=C/C(=O)O [Fumarate, 2:1 fumarate salt (hemi-fumarate) of N-hydroxy-3-[4-[[[2-(2-methyl-1H-indol-3-yl)ethyl]amino]methyl]phenyl]-2E-2-propenamide]

Solid State (EQ 93% r.h.) Form by XRPD ([1]; 10 days): No change
Molecule: Cc1[nH]c2ccccc2c1CCNCc1ccc(/C=C/C(=O)NO)cc1.O=C(O)c1cc(O)ccc1O [Gentisate, 1:1 gentisate salt of N-hydroxy-3-[4-[[[2-(2-methyl-1H-indol-3-yl)ethyl]amino]methyl]phenyl]-2E-2-propenamide]

Intrinsic Dissolution Rate ([2]; 0.1N HCl (Table 19)): 0.13
Intrinsic Dissolution Rate ([2]; Water (Table 19)): 0.14
Intrinsic Dissolution Rate ([2]; pH = 4 (Table 19)): 0.09
Molecule: CC(O)C(=O)O.Cc1[nH]c2ccccc2c1CCNCc1ccc(/C=C/C(=O)NO)cc1 [Anhydrous DL-lactate salt, 1:1 anhydrous DL-lactate salt of N-hydroxy-3-[4-[[[2-(2-methyl-1H-indol-3-yl)ethyl]amino]methyl]phenyl]-2E-2-propenamide]

Solid State (EQ 93% r.h.) Form by XRPD ([1]; 7 days): No change
Molecule: Cc1[nH]c2ccccc2c1CCNCc1ccc(/C=C/C(=O)NO)cc1.O=C(O)c1ccccc1 [Benzoate, 1:1 benzoate salt of N-hydroxy-3-[4-[[[2-(2-methyl-1H-indol-3-yl)ethyl]amino]methyl]phenyl]-2E-2-propenamide]

aqueous solubility, in words [6]: excellent
intrinsic dissolution (rate), in words [2]: good
stability characteristics, in words ([3]; both in solution and in the solid state): very good stability
stability with all excipient mixtures tested, in words ([5]; after 2 weeks at 50° C./75% r.h.): very good stability
Molecule: CC(O)C(=O)O.Cc1[nH]c2ccccc2c1CCNCc1ccc(/C=C/C(=O)NO)cc1 [DL-lactate salt, lactate salt of N-hydroxy-3-[4-[[[2-(2-methyl-1H-indol-3-yl)ethyl]amino]methyl]phenyl]-2E-2-propenamide]

Solid State (EQ 93% r.h.) Crystallinity by XRPD [1]: Good
Solid State (EQ 93% r.h.) Form by XRPD ([1]; either 7 or 10 days (time not given)): converted to a new form
Solid State (EQ 93% r.h.) LOD by TGA ([1]; after 93% r.h. storage, (105° C.)): LOD = 8.8%
Molecule: CC(=O)O.Cc1[nH]c2ccccc2c1CCNCc1ccc(/C=C/C(=O)NO)cc1 [Acetate, 1:1 acetate salt of N-hydroxy-3-[4-[[[2-(2-methyl-1H-indol-3-yl)ethyl]amino]methyl]phenyl]-2E-2-propenamide]

conversion upon equilibration ([7]; 0.1 N HCl): to the hydrochloride salt
conversion upon equilibration ([7]; phosphate buffer (pH=6.8)): to the free base
conversion upon equilibration ([7]; water / aqueous solutions): converts to form B
Molecule: Cc1[nH]c2ccccc2c1CCNCc1ccc(/C=C/C(=O)NO)cc1 [Form A of the mesylate salt]

Solid State (EQ 93% r.h.) Crystallinity by XRPD [1]: Poor
Molecule: 1:1 propionate salt of N-hydroxy-3-[4-[[[2-(2-methyl-1H-indol-3-yl)ethyl]amino]methyl]phenyl]-2E-2-propenamide
